Patent publication US20210023074A1, “TREATMENT OF DEMYELINATING DISEASES” (Victoria Link Ltd., priority 2018, published 2021)

Key:
Type in all cases: in vivo, C57BL/6 mice
[1] = tested on: infiltrating immune cells (CD45high) in brain of EAE mice; test: Immune cell infiltration into the brain of EAE mice (flow cytometry)
Procedure: On day 17, mice were started on daily treatment with vehicle only (Veh) or nalmefene (NaIM) at 0.1 or 0.03 mg/kg by i.p. injection. On day 45 after immunization to induce EAE, mice were culled and immune cells isolated from the brains. Isolation was by Percoll gradient as described in White et al. 2018. Scientific Reports. 8:259. Once isolated, cells were stained with fluorescently labelled antibodies to identify specific immune cell types and analysed by flow cytometry. All infiltrating immune cells were identified by CD45^high expression; CD4 T cells were identified as CD45^highCD4^+, and macrophages as CD45^highCD11b^+Gr-1^−. The relative number of cells is expressed as a ratio to microglia (MG), a brain resident immune cell identified as CD45^mediumCD11b^+. ***p<0.001, **p<0.01, and *p<0.05 by one-way ANOVA with Dunnett's multiple comparison test.
Experimental detail: EAE was induced in female C57BL/6 mice as described in Example 1. […] Once isolated, cells were stained with fluorescently labelled antibodies to identify specific immune cell types and analysed by flow cytometry. […] The relative number of cells is expressed as a ratio to microglia (MG), a brain resident immune cell identified as CD45^mediumCD11b+. ****p<0.0001 and **p<0.01 by one-way ANOVA with Holm-Sidak's multiple comparison test compared to vehicle.

[2] = tested on: cuprizone-induced demyelination in mice; test: Cuprizone demyelination disease model, TEM of corpus callosum, g-ratio; details: 0.3% cuprizone diet, 0.01 mg/kg i.p. daily from day 28, day 70
Procedure: Experimental details: A demyelinating disease state was induced in female C57BL/6 mice (8-14 weeks old and between 17-23 grams in weight). The mice were fed cuprizone-containing chow (0.3% (w/w) cuprizone) or chow only (normal controls) for 35 days, at which point they were switched back to standard chow. At day 28, mice were started on daily treatment with vehicle only (DMSO: Tween 80: Saline) or nalmefene at 0.01 mg/kg by i.p. injection. On day 70, mice were culled and brain tissue were processed for transmission electron microscopy (TEM). Mice were weighed daily and the % weight change calculated.
Experimental details: A demyelinating disease state was induced in female C57BL/6 mice as described in FIG. 19A. FIGS. 19A-C show representative Transmission Electron Microscopy (TEM) images of the corpus callosum of mice (A) fed normal diet and (B-C) fed 0.3% cuprizone to induce demyelination. Following the time course described in FIG. 19A, cuprizone fed mice were administered (B) vehicle only treatment, and (C) nalmefene (0.01 mg/kg/i.p.) and then sacrificed on experimental day 70. Scale bars represent 2000 nm.
Mice fed a normal diet have a mean g-ratio of 0.78±0.09 in contrast to mice fed 0.3% cuprizone that have a significant increase in g-ratio of 0.84±0.1 corresponding to the decreased myelin thickness (####p<0.0001). […] Data represents measurements of 5 TEM images of the corpus callosum from 2-3 mice per treatment group and g-ratios calculated (a measure of myelin thickness) using Image J software. Analysis was performed by individuals blinded to treatment groups. (n=200-400 axons per treatment group). All data analysed by one-way ANOVA followed by Turkeys multiple comparisons test.

[3] = tested on: experimental autoimmune encephalomyelitis (EAE) mice; test: EAE model of MS, daily disease score (paralysis), treatment from day 17
Procedure: Experimental detail: Female, C57BL/6 mice were immunized subcutaneously (s.c.) in the hind flanks to induce EAE using myelin oligodendrocyte glycoprotein (MOG) peptide 35-55 (50 μg/mouse) in complete Freund's adjuvant containing heat-killed Mycobacterium tuberculosis (500 μg/mouse). In addition, pertussis toxin (200 ng/mouse) was administered intraperitoneally (i.p.) on days 0 and 2. Mice were weighed and scored daily. On day 17 (dotted line), mice were started on daily treatment with vehicle only (Veh; 10% tween and 10% DMSO in saline) or Nalmefene (NaIM) at 0.1, 0.03, or 0.01 mg/kg by i.p. injection. Nalmefene was supplied by University of Kansas, Synthetic Chemical Biology Core Laboratory, 97.6% pure by HPLC). Treatment allocation was blinded. The disease was scored from 0-5 with 0 (normal), 1 (partial tail paralysis), 2 (full tail paralysis), 3 (one hind limb paralysed or severe disability in both hind limbs), 4 (complete paralysis of both hind limbs) and 5 (moribund). This model is a standard disease model for multiple sclerosis and is described in White et al. 2018. Scientific Reports. 8:259 which is incorporated herein by reference in its entirety. Shown are results combined from 2 independent experiments. ****p<0.0001 by one-way ANOVA with Dunnett's multiple comparison test.
Experimental detail: EAE was induced in female C57BL/6 mice as described in Example 1. On day 17, mice were started on daily treatment with vehicle only (Veh) or nalmefene (NaIM) at 0.1 or 0.03 mg/kg by i.p. injection. The area under the curve (AUC) was calculated for each mouse based upon the daily disease score and represents the total disability experienced. Shown are results from 1 representative experiment. *p<0.05 by one-way ANOVA with Dunnett's multiple comparison test.
Experimental detail: EAE was induced in female C57BL/6 mice as described in Example 1. On day 17 (dotted line), mice were started on daily treatment with vehicle only (Veh) or nalmefene (NaIM) at 0.1 or 0.03 mg/kg by i.p. injection. Shown are mice that were not sick at the time of treatment but developed disease later. *p<0.05 by two-way ANOVA with Holm-Sidak's multiple comparison test.

[4] = treated prior to disease onset, 0.1 or 0.03 mg/kg i.p. daily from day 17

C=C1CC[C@@]2(O)[C@H]3Cc4ccc(O)c5c4[C@@]2(CCN3CC2CC2)[C@H]1O5 [nalmefene, (4R,4aS,7aS,12bS)-3-(cyclopropylmethyl)-7-methylidene-2,4,5,6,7a,13-hexahydro-1H-4,12-methanobenzofuro[3,2-e]isoquinoline-4a,9-diol]
number of infiltrating immune cells in brain (ratio to microglia) ([1]; 0.03 mg/kg i.p. daily from day 17, day 45): significantly reduced the number of infiltrating immune cells
number of infiltrating immune cells in brain (ratio to microglia) ([1]; 0.03 mg/kg i.p. daily from disease onset, chronic phase (>24 days)): significantly reduced the number of infiltrating immune cells
axonal-myelin structure and remyelination (TEM) [2]: more normal axonal-myelin structure and organisation, and increased remyelination
g-ratio (measure of myelin thickness), corpus callosum [2]: 0.791±0.01
g-ratio compared to vehicle [2]: significantly lower g-ratio compared to vehicle only treated
disease score (recovery from paralysis) ([3]; 0.1, 0.03 or 0.01 mg/kg i.p. daily from day 17, 45 days): reduction of disease in all nalmefene-treated groups indicates recovery from paralysis
reduction in disease (total disability, AUC of daily disease score) ([3]; 0.1 and 0.03 mg/kg i.p. daily from day 17, by day 45): 70%
total disability (AUC of disease score) ([3]; 0.1 or 0.03 mg/kg i.p. daily from day 17, by day 45): significantly lower total disability
onset of disease [3, 4]: did not alter the onset of disease
recovery from paralysis (disease score) [3, 4]: rapid recovery from paralysis
